Results as given in patent publication US20250170132A1, “SALTS AND POLYMORPHIC FORMS OF MENIN INHIBITORS AND PHARMACEUTICAL COMPOSITIONS THEREOF” (Syndax Pharmaceuticals, Inc., priority 2023, published 2025).

Assays:
Format in all cases: physicochemical
[1] = Polymorph screen: solvent drop grinding; details: XRPD
Method: (§1) X-ray powder diffraction (XRPD) • Instrument: Panalytical Empyrean • Parameters: X-Ray tube Cu (Kα radiation); Power: 45 kV×40 mA • Scanning range: 2 to 40 2θ (degree) • Step size: 0.01 degree • Scanning speed: 6.33 degree (20) per minute Thermogravimetric analysis (TGA) • Instrument: TA Instruments Discovery TGA • Parameters: Ramp 10° C. per minute, 25 to 300° C., 50 mL/min N2 sweep Differential scanning calorimetry (DSC) • Instrument: TA Instruments Discovery DSC • Parameters: Ramp 10° C. per minute, up to 300° C. Polarized light microscopy (PLM) • Instrument: Nikon Eclipse Ci POL • Camera: Nikon DS-Fi3 • Software: Nikon NIS Elements
Solvent drop grinding—About 30 mg API was ground with different solvents. The obtained solids were characterized by XRPD (Table 39).

[2] = Polymorph screen: temperature cycling; details: temperature cycling 50→40→30→20→5 °C, total 2 cycles, each step 4 h, isolated at RT, XRPD
Method: as §1
The obtained solids were characterized by XRPD (Table 37).

[3] = Polymorph screen: sonication induced crystallization
Method: as §1
Sonication induced crystallization—About 40 mg API was suspended and sonicated in different solvents in 4 mL vials at RT. The solids in the slurry were characterized by XRPD after 1-day (Table 38).

[4] = Polymorph screen: liquid vapor diffusion
Method: as §1
The obtained solids were characterized by XRPD after 7-10 days (Table 32).

[5] = Solution stability studies at accelerated conditions (counterion-related degradation; Impurity A formation vs temperature, pH, time)
Excerpt: FIG. 32 depicts Impurity A formation as a function of temperature, pH, and time in solution.
Compound A monocitrate monohydrate has at least two advantageously and unexpected characteristics. Both alone and in comparison, with Compound A salts known in the art (e.g. Compound A fumarate salts). […] Second, in the manufacturing process, Compound A fumarate requires a separate slurrying step which results in a solvate with an organic solvent. Compound A monocitrate monohydrate salt is isolated directly from ethanol:water, no slurrying step is required. […] Additionally, the Compound A monocitrate forms a monohydrate instead of a solvate with one or more organic molecules.

[6] = Polymorph screen: slurry at 50° C.; details: slurry 50° C.
Method: as §1
Slurry at 50° C.—About 40 mg API was suspended and stirred in different solvents in 4 mL vials at 50° C. The solids in the slurry were characterized by XRPD after 3 days (Table 34).

[7] = Aqueous solubility of Compound A salts
Method: Solubility of Compound A citrate was determined in 3 different types of matrices: unbuffered water, citrate-buffered solutions from pH 3 to 6, and formulations consisting of citrate, advantame, methylparaben sodium, potassium sorbate, and sodium chloride at pH ranging from 3 to 6. Solubility in unbuffered water at ambient temperature was 38.5 mg/mL.
The target pH was reassessed when the F3 formulation was developed. Compound A citrate solubility studies were performed initially in simple buffered solutions to assess solubility trends as a function of pH. […] The target concentration of Compound A was therefore changed to 40 mg/mL as a compromise between drug substance and preservatives dissolution rate and stability.

[8] = Polymorph screen: slow evaporation; details: Diethylamine, 50° C.
Method: as §1
The vials were covered with paraffin film with 3-5 holes and placed at specified temperature for evaporation. The obtained solids were characterized by XRPD (Table 35).

[9] = Approximate solubility estimation in 24 solvents; details: thermodynamic from solid
Method: About 10 mg of Compound A monocitrate monohydrate was weighed into a 4.0 mL vial and 25 μL of solvent was added at RT. The solution was shaken and stirred. If no clear solution was obtained, another 25 μL was added and this was repeated until 4.0 mL solvent is added.

[10] = Polymorph screen: polymer-induced crystallization
Method: as §1
The obtained solids were characterized by XRPD after 7-10 days (Table 36).

CCN(C(=O)c1cc(F)ccc1Oc1cncnc1N1CC2(CCN(C[C@H]3CC[C@H](NS(=O)(=O)CC)CC3)CC2)C1)C(C)C [Compound A monocitrate monohydrate]
Crystal Form ([1]; about 30 mg API, 1,4-Dioxane): Form A | Crystal Form ([1]; about 30 mg API, Acetone): Form A | Crystal Form ([1]; about 30 mg API, DCM): Form A | Crystal Form ([1]; about 30 mg API, EtOH): Form A | Crystal Form ([1]; about 30 mg API, THF): Form A | Crystal Form ([2]; 1,4-dioxane:H2O 9:1): Form A* | Crystal Form ([2]; 2-MeTHF:DMF 9:1): Form A* | Crystal Form ([2]; DMSO:Toluene 1:9): Form A* | Crystal Form ([2]; NMP:nPA 1:9): Form A* | Crystal Form ([3]; DMSO:EtOAc 1:9, XRPD after 1 day): Form A | Crystal Form ([3]; THF, XRPD after 1 day): Form A | Crystal Form ([4]; solvent DCM, antisolvent Acetone): Form A | Crystal Form ([4]; solvent DCM, antisolvent MTBE): Form A | Crystal Form ([4]; solvent NMP, antisolvent MTBE): Form A | reaction of counterion with the pyrimidine ring of Compound A (degradation) [5]: does not react with the pyrimidine ring of Compound A | Crystal Form ([6]; 1-propanol): Form A | Crystal Form ([6]; 2-MeTHF): Form A | Crystal Form ([6]; ACN 9:1): Form A | Crystal Form ([6]; Anisole): Form A | Crystal Form ([6]; Cyclohexane): Form A | Crystal Form ([6]; Dimethoxyethane): Form A | Crystal Form ([6]; Ethyl acetate/MeOH 3:1): Form A | Crystal Form ([6]; Heptane): Form A | Crystal Form ([6]; IPAc): Form A | Crystal Form ([6]; MEK): Form A | Crystal Form ([6]; MTBE): Form A | Crystal Form ([6]; Methyl Acetate): Form A | Crystal Form ([6]; NMP:CPME (3:7 v/v)): Form A | Crystal Form ([6]; Propylene glycol:Acetone 1:1): Form A | Crystal Form ([6]; Propylene glycol:IPA 1:1): Form A | Crystal Form ([6]; THF 9:1): Form A | Crystal Form ([6]; Toluene): Form A | Effect of solution pH on solubility ([7]; citrate-buffered solutions and formulations, pH 3 to 6): maxima at both pH 3 and 6 | USP solubility definition ([7]; physiological pH range from 1.2 through 6.8): soluble | Solubility trend as a function of pH ([7]; simple buffered solutions, pH 3.0 to 6.0): highest at pH 3.0 | solubility ([7]; unbuffered water, ambient temperature, read-out: Solubility): 38.5 mg/mL | Crystal Form [8]: FB-2 | solubility ([9]; aqueous with cosolvent or surfactant or cyclodextrin, 1,4-dioxane/water (7/3), heated for few seconds using heat gun): 84 to 105 mg/mL | solubility ([9]; aqueous with cosolvent or surfactant or cyclodextrin, 1-PrOH/water (1/1), heated for few seconds using heat gun): 161 to 242 mg/mL | solubility ([9]; aqueous with cosolvent or surfactant or cyclodextrin, Acetone/H2O (9:1 v/v), RT): 15 to 17.5 mg/mL | solubility ([9]; aqueous with cosolvent or surfactant or cyclodextrin, MeOH/water (7/3), heated for few seconds using heat gun): 93 to 186 mg/mL | solubility ([9]; aqueous with cosolvent or surfactant or cyclodextrin, THF/water (1/1), heated for few seconds using heat gun): 141 to 212 mg/mL | solubility ([9]; organic solvent or mixture, 2-MeTHF, RT): < 2.9 mg/mL | solubility ([9]; organic solvent or mixture, Anisole, RT): < 3 mg/mL | solubility ([9]; organic solvent or mixture, Benzene, RT): < 2.9 mg/mL | solubility ([9]; organic solvent or mixture, CPME, RT): < 2.1 mg/mL | solubility ([9]; organic solvent or mixture, Chloroform, RT): < 2.3 mg/mL | solubility ([9]; organic solvent or mixture, Cyclohexane, RT): < 2.3 mg/mL | solubility ([9]; organic solvent or mixture, DMA, RT): 81 to 162 mg/mL | solubility ([9]; organic solvent or mixture, DMF, RT): 80 to 160 mg/mL | solubility ([9]; organic solvent or mixture, Diethylamine, RT): 170 to 340 mg/mL | solubility ([9]; organic solvent or mixture, Diisopropyl ether, RT): < 2.3 mg/mL | solubility ([9]; organic solvent or mixture, Dimethoxyethane (DME), RT): < 2.4 mg/mL | solubility ([9]; organic solvent or mixture, EtOAc, RT): < 2.3 mg/mL | solubility ([9]; organic solvent or mixture, Heptane, RT): < 2.8 mg/mL | solubility ([9]; organic solvent or mixture, IPA, RT): < 2.8 mg/mL | solubility ([9]; organic solvent or mixture, MEK, RT): < 2.4 mg/mL | solubility ([9]; organic solvent or mixture, MTBE, RT): < 2.8 mg/mL | solubility ([9]; organic solvent or mixture, NMP, RT): 120 to 240 mg/mL | solubility ([9]; organic solvent or mixture, Propylene glycol, heated for few seconds using heat gun): 22.2 to 27.8 mg/mL | solubility ([9]; organic solvent or mixture, THF, RT): < 2 mg/mL | Crystal Form ([10]; polymer Brij, NMP:H2O 1:9, 40° C.): Amorphous | Crystal Form ([10]; polymer PVC, DMF:DCM 1:9, RT): Form A | Crystal Form ([10]; polymer PVP, DMA:H2O 1:9, 40° C.): Form A | Crystal Form ([10]; polymer PVP, NMP:H2O 1:9, 40° C.): Form A
